Experimental data as given in patent US8357717B2, “Spiro group-containing amide compounds having bradykinin 1 receptor (B1R) activity” (Gruenenthal GmbH, priority 2009, dated 2013).

Legend:
[1] = biological target: T1, B1R receptor of the rat (rB1R) (Rattus norvegicus, UniProt P97583); assay: FLIPR Ca2+ functional study on bradykinin receptor 1, rB1R cells (CHO K1); format: cell-based; details: 10 μM test substance, CHO K1 cells with rat B1R, agonist Des-Arg9-bradykinin at EC80; for inhibition at 10 µM: read-out: B1R antagonism, rat [10 μM] % inhibition
T1 construct: expressed in transfected cells; host or cells: CHO K1 cells, stably transfected
T1 sequence (P97583 1-337): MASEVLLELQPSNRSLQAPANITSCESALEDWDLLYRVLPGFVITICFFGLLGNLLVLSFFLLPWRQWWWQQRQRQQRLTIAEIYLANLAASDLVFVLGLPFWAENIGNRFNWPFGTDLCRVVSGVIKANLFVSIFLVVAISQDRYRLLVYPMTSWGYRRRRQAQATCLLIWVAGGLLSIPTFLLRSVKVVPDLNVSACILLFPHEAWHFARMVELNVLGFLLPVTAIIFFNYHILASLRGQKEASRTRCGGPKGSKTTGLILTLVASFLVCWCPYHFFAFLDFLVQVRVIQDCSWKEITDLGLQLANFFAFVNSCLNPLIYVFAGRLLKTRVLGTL
How it was run: (§1)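 Stably transfected CHO K1 cells loaded with Fluo-4; FLIPR Ca2+ fluorescence (ex 488/em 540 nm, peak counts). Compounds (10 μM, or concentration series for IC50) preincubated 10–20 min, then EC80 agonist added (human: Lys-Des-Arg9-bradykinin; rat: Des-Arg9-bradykinin); % inhibition versus maximum achievable, n=2–3, N≥2.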

[2] = biological target: T2, human B1R receptor (hB1R) (Homo sapiens, UniProt P46663); assay: FLIPR Ca2+ functional study on bradykinin receptor 1, hB1R cells (CHO K1); format: cell-based; details: CHO K1 cells with human B1R, agonist Lys-Des-Arg9-bradykinin at EC80; for inhibition at 10 µM: CHO-K1, 10 μM test substance, read-out: B1R antagonism, human [10 μM] % inhibition; for B1R antagonism, human [10 μM] % inhibition: 10 μM test substance
T2 construct: expressed in transfected cells; host or cells: CHO K1 cells, stably transfected
T2 sequence (P46663 1-353): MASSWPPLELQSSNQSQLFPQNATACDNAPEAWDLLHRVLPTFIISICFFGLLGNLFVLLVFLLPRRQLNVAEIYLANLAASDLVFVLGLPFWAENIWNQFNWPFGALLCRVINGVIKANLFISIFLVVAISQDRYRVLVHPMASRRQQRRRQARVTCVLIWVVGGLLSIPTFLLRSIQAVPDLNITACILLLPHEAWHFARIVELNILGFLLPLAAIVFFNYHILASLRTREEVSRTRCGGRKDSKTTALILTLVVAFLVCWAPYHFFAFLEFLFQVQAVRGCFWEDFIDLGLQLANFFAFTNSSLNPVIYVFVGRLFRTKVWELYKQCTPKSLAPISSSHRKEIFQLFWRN
How it was run: as §1

inhibition at 10 µM [1]	inhibition at 10 µM [2]	B1R antagonism, rat [10 μM] % inhibition [1]	B1R antagonism, human [10 μM] % inhibition [2]	Compound
100%	98%			Cc1ccc(Cl)c(S(=O)(=O)N2CCCc3ccc(CC(=O)N4CCC5(CC4)CCN(c4ccncc4)CC5)cc32)c1Cl [Compound G-66, 2-[1-[(2,6-Dichloro-3-methyl-phenyl)sulfonyl]-1,2,3,4-tetrahydro-quinolin-7-yl]-1-(9-pyridin-4-yl-3,9-diazaspiro[5.5]undecan-3-yl)-ethanone]
101%	100%			COc1cc(C)c(S(=O)(=O)N2Cc3ccc(C(=O)N4CCC5(CC4)CCN(c4ccncc4)CC5)cc3C2)c(C)c1 [Compound G-67, [2-[(4-Methoxy-2,6-dimethyl-phenyl)sulfonyl]-2,3-dihydro-1H-isoindol-5-yl]-(9-pyridin-4-yl-3,9-diazaspiro[5.5]undecan-3-yl)-methanone]
81%	90%			Cc1cccc(Cl)c1S(=O)(=O)N1Cc2ccc(C(=O)N3CCC4(CC3)CCN(c3ccncc3)CC4)cc2C1 [Compound G-68, [2-[(2-Chloro-6-methyl-phenyl)sulfonyl]-2,3-dihydro-1H-isoindol-5-yl]-(9-pyridin-4-yl-3,9-diazaspiro[5.5]undecan-3-yl)-methanone]
70%	99%			O=C(c1ccc2c(c1)CN(C(=O)c1ccc(Cl)s1)C2)N1CCC2(CC1)CCN(c1ccncc1)CC2 [Compound G-69, [2-(5-Chloro-thiophene-2-carbonyl)-2,3-dihydro-1H-isoindol-5-yl]-(9-pyridin-4-yl-3,9-diazaspiro[5.5]undecan-3-yl)-methanone]
101%	88%			COc1cc(C)c(S(=O)(=O)N2CCCc3ccc(CC(=O)N4CCC5(CC4)CCN(c4ccncc4)CC5)nc32)c(C)c1 [Compound G-70, 2-[8-[(4-Methoxy-2,6-dimethyl-phenyl)sulfonyl]-5,6,7,8-tetrahydro-[1,8]naphthyridin-2-yl]-1-(9-pyridin-4-yl-3,9-diazaspiro[5.5]undecan-3-yl)-ethanone]
80%	91%			O=C(c1cn2c(n1)CN(C(=O)c1ccc(Cl)s1)CC2)N1CCC2(CC1)CCN(c1ccncc1)CC2 [Compound G-71, [7-(5-Chloro-thiophene-2-carbonyl)-5,6,7,8-tetrahydro-imidazo[1,2-a]pyrazin-2-yl]-(9-pyridin-4-yl-3,9-diazaspiro[5.5]undecan-3-yl)-methanone]
104%	100%			COc1cc(C)c(S(=O)(=O)N2CCn3cnc(C(=O)N4CCC5(CC4)CCN(c4ccncc4)CC5)c3C2)c(C)c1 [Compound G-72, [7-[(4-Methoxy-2,6-dimethyl-phenyl)sulfonyl]-5,6,7,8-tetrahydro-imidazo[1,5-a]pyrazin-1-yl]-(9-pyridin-4-yl-3,9-diazaspiro[5.5]undecan-3-yl)-methanone]
13%	85%			COc1cc(C)c(C(=O)N2Cc3ccc(C(=O)N4CCC5(CC4)CCN(c4ccncc4)CC5)cc3C2)c(C)c1 [Compound G-73, [2-(4-Methoxy-2,6-dimethyl-benzoyl)-2,3-dihydro-1H-isoindol-5-yl]-(9-pyridin-4-yl-3,9-diazaspiro[5.5]undecan-3-yl)-methanone]
99%	87%			Cc1cc(S(=O)(=O)N2CCc3ccc(C(=O)N4CCC5(CC4)CCN(c4ccncc4)CC5)cc32)c(C)cc1Cl [G_CC-013, (1-(4-Chloro-2,5-dimethylphenylsulfonyl)indolin-6-yl)(9-(pyridin-4-yl)-3,9-diazaspiro[5.5]undecan-3-yl)methanone]
		98%	96%	COc1cc(C)c(S(=O)(=O)N2CCCc3ccc(CC(=O)N4CCC5(CC4)CCN(c4ccncc4)CC5)cc32)c(C)c1 [G_CC-055, 2-[1-[(4-Methoxy-2,6-dimethyl-phenyl)sulfonyl]-1,2,3,4-tetrahydro-quinolin-7-yl]-1-(3-pyridin-4-yl-3,9-diazaspiro[5.5]undecan-9-yl)-ethanone]
		100%	98%	COc1cc(C)c(S(=O)(=O)N2CCCc3ccc(C(=O)N4CCC5(CC4)CCN(c4ccncc4)CC5)cc32)c(C)c1 [G_CC-056, [1-[(4-Methoxy-2,6-dimethyl-phenyl)sulfonyl]-1,2,3,4-tetrahydro-quinolin-7-yl]-(3-pyridin-4-yl-3,9-diazaspiro[5.5]undecan-9-yl)-methanone]
